# ± gives the expanded uncertainty stated by the source.
# Assay: xn = mol fraction of the nth substance listed
# Conditions: 100 kPa, Liquid; for mass density: Vibrating tube method; for electrical conductivity: Alternating current cell with electrodes; for viscosity: Cone and plate viscometry
smiles,measurement,setting,value
C1CC[NH2+]C1.O=[N+]([O-])[O-] [pyrrolidinium nitrate] + CC1COC(=O)O1,mass density,"313.15 K, x1 = 0.62",1209.1 ± 2.5 kg/m3
same,mass density,"313.15 K, x1 = 0.7",1210.4 ± 2.5 kg/m3
same,mass density,"313.15 K, x1 = 0.8",1212 ± 2.6 kg/m3
same,mass density,"313.15 K, x1 = 1",1213.1 ± 2.7 kg/m3
same,electrical conductivity,"318.15 K, x1 = 0.1",0.65 ± 0.052 S/m
same,electrical conductivity,"318.15 K, x1 = 0.22",1.13 ± 0.09 S/m
same,electrical conductivity,"318.15 K, x1 = 0.3",1.9 ± 0.15 S/m
same,electrical conductivity,"318.15 K, x1 = 0.5",3.15 ± 0.25 S/m
same,electrical conductivity,"318.15 K, x1 = 0.8",3.81 ± 0.3 S/m
same,electrical conductivity,"323.15 K, x1 = 0.1",0.704 ± 0.056 S/m
same,electrical conductivity,"323.15 K, x1 = 0.22",1.23 ± 0.098 S/m
same,electrical conductivity,"323.15 K, x1 = 0.3",2.06 ± 0.17 S/m
same,electrical conductivity,"323.15 K, x1 = 0.5",3.43 ± 0.27 S/m
same,electrical conductivity,"323.15 K, x1 = 0.8",4.18 ± 0.33 S/m
same,electrical conductivity,"323.15 K, x1 = 1",7.17 ± 0.57 S/m
same,viscosity,"323.15 K, x1 = 0.1",2.24 mPa·s
same,viscosity,"323.15 K, x1 = 0.22",3.04 mPa·s
same,viscosity,"323.15 K, x1 = 0.3",3.75 mPa·s
same,viscosity,"323.15 K, x1 = 0.4",4.91 mPa·s
same,viscosity,"323.15 K, x1 = 0.5",6.07 mPa·s
same,viscosity,"323.15 K, x1 = 0.62",7.57 mPa·s
same,viscosity,"323.15 K, x1 = 0.7",9.33 mPa·s
same,viscosity,"323.15 K, x1 = 0.8",10.97 mPa·s
same,viscosity,"323.15 K, x1 = 1",16.7 mPa·s
same,mass density,"323.15 K, x1 = 0.1",1181.1 ± 2.4 kg/m3
same,mass density,"323.15 K, x1 = 0.22",1187.7 ± 2.4 kg/m3
same,mass density,"323.15 K, x1 = 0.3",1191.7 ± 2.4 kg/m3
same,mass density,"323.15 K, x1 = 0.4",1195.7 ± 2.4 kg/m3
same,mass density,"323.15 K, x1 = 0.5",1198.6 ± 2.4 kg/m3
same,mass density,"323.15 K, x1 = 0.62",1201.4 ± 2.5 kg/m3
same,mass density,"323.15 K, x1 = 0.7",1203 ± 2.5 kg/m3
same,mass density,"323.15 K, x1 = 0.8",1204 ± 2.5 kg/m3
same,mass density,"323.15 K, x1 = 1",1205.5 ± 2.7 kg/m3
same,electrical conductivity,"328.15 K, x1 = 0.1",0.759 ± 0.061 S/m
same,electrical conductivity,"328.15 K, x1 = 0.22",1.33 ± 0.11 S/m
same,electrical conductivity,"328.15 K, x1 = 0.3",2.22 ± 0.18 S/m
same,electrical conductivity,"328.15 K, x1 = 0.5",3.72 ± 0.3 S/m
same,electrical conductivity,"328.15 K, x1 = 0.8",4.57 ± 0.37 S/m
same,electrical conductivity,"333.15 K, x1 = 0.1",0.816 ± 0.065 S/m
same,electrical conductivity,"333.15 K, x1 = 0.22",1.44 ± 0.12 S/m
same,electrical conductivity,"333.15 K, x1 = 0.3",2.39 ± 0.19 S/m
same,electrical conductivity,"333.15 K, x1 = 0.5",4.01 ± 0.32 S/m
same,electrical conductivity,"333.15 K, x1 = 0.8",4.97 ± 0.4 S/m
same,electrical conductivity,"333.15 K, x1 = 1",8.51 ± 0.68 S/m
same,viscosity,"333.15 K, x1 = 0.1",1.91 mPa·s
same,viscosity,"333.15 K, x1 = 0.22",2.57 mPa·s
same,viscosity,"333.15 K, x1 = 0.3",3.14 mPa·s
same,viscosity,"333.15 K, x1 = 0.4",4.06 mPa·s
same,viscosity,"333.15 K, x1 = 0.5",4.97 mPa·s
same,viscosity,"333.15 K, x1 = 0.62",6.15 mPa·s
same,viscosity,"333.15 K, x1 = 0.7",7.61 mPa·s
same,viscosity,"333.15 K, x1 = 0.8",8.83 mPa·s
same,viscosity,"333.15 K, x1 = 1",13.3 mPa·s
same,mass density,"333.15 K, x1 = 0.1",1171.2 ± 2.3 kg/m3
same,mass density,"333.15 K, x1 = 0.22",1178.5 ± 2.4 kg/m3
same,mass density,"333.15 K, x1 = 0.3",1182.9 ± 2.4 kg/m3
same,mass density,"333.15 K, x1 = 0.4",1187.4 ± 2.4 kg/m3
same,mass density,"333.15 K, x1 = 0.5",1190.6 ± 2.4 kg/m3
same,mass density,"333.15 K, x1 = 0.62",1193.8 ± 2.4 kg/m3
same,mass density,"333.15 K, x1 = 0.7",1195.6 ± 2.5 kg/m3
same,mass density,"333.15 K, x1 = 0.8",1196.5 ± 2.5 kg/m3
same,mass density,"333.15 K, x1 = 1",1197.2 ± 2.7 kg/m3
same,electrical conductivity,"338.15 K, x1 = 0.1",0.874 ± 0.07 S/m
same,electrical conductivity,"338.15 K, x1 = 0.22",1.54 ± 0.12 S/m
same,electrical conductivity,"338.15 K, x1 = 0.3",2.56 ± 0.2 S/m
same,electrical conductivity,"338.15 K, x1 = 0.5",4.32 ± 0.35 S/m
same,electrical conductivity,"338.15 K, x1 = 0.8",5.38 ± 0.43 S/m
same,electrical conductivity,"343.15 K, x1 = 0.1",0.932 ± 0.075 S/m
same,electrical conductivity,"343.15 K, x1 = 0.22",1.66 ± 0.13 S/m
same,electrical conductivity,"343.15 K, x1 = 0.3",2.73 ± 0.22 S/m
same,electrical conductivity,"343.15 K, x1 = 0.5",4.62 ± 0.37 S/m
same,electrical conductivity,"343.15 K, x1 = 0.8",5.8 ± 0.46 S/m
same,viscosity,"343.15 K, x1 = 0.1",1.65 mPa·s
same,viscosity,"343.15 K, x1 = 0.22",2.2 mPa·s
same,viscosity,"343.15 K, x1 = 0.3",2.68 mPa·s
same,viscosity,"343.15 K, x1 = 0.4",3.44 mPa·s
same,viscosity,"343.15 K, x1 = 0.5",4.16 mPa·s
same,viscosity,"343.15 K, x1 = 0.62",5.19 mPa·s
same,viscosity,"343.15 K, x1 = 0.7",6.42 mPa·s
same,viscosity,"343.15 K, x1 = 0.8",7.91 mPa·s
same,viscosity,"343.15 K, x1 = 1",11.17 mPa·s
same,mass density,"343.15 K, x1 = 0.1",1161.4 ± 2.3 kg/m3
same,mass density,"343.15 K, x1 = 0.22",1169.3 ± 2.3 kg/m3
same,mass density,"343.15 K, x1 = 0.3",1174.2 ± 2.4 kg/m3
same,mass density,"343.15 K, x1 = 0.4",1179.1 ± 2.4 kg/m3
same,mass density,"343.15 K, x1 = 0.5",1182.7 ± 2.4 kg/m3
same,mass density,"343.15 K, x1 = 0.62",1186.2 ± 2.4 kg/m3
same,mass density,"343.15 K, x1 = 0.7",1188 ± 2.5 kg/m3
same,mass density,"343.15 K, x1 = 0.8",1189.5 ± 2.5 kg/m3
same,mass density,"343.15 K, x1 = 1",1190.2 ± 2.6 kg/m3
same,electrical conductivity,"344.95 K, x1 = 1",9.3 ± 0.74 S/m
same,electrical conductivity,"348.15 K, x1 = 0.1",0.992 ± 0.079 S/m
same,electrical conductivity,"348.15 K, x1 = 0.22",1.77 ± 0.14 S/m
same,electrical conductivity,"348.15 K, x1 = 0.3",2.91 ± 0.23 S/m
same,electrical conductivity,"348.15 K, x1 = 0.5",4.93 ± 0.39 S/m
same,electrical conductivity,"348.15 K, x1 = 0.8",6.24 ± 0.5 S/m
same,electrical conductivity,"353.15 K, x1 = 0.1",1.05 ± 0.084 S/m
same,electrical conductivity,"353.15 K, x1 = 0.22",1.88 ± 0.15 S/m
same,electrical conductivity,"353.15 K, x1 = 0.3",3.09 ± 0.25 S/m
same,electrical conductivity,"353.15 K, x1 = 0.5",5.24 ± 0.42 S/m
same,electrical conductivity,"353.15 K, x1 = 0.8",6.68 ± 0.53 S/m
same,viscosity,"353.15 K, x1 = 0.1",1.45 mPa·s
same,viscosity,"353.15 K, x1 = 0.22",1.91 mPa·s
same,viscosity,"353.15 K, x1 = 0.3",2.32 mPa·s
same,viscosity,"353.15 K, x1 = 0.4",2.95 mPa·s
same,viscosity,"353.15 K, x1 = 0.5",3.54 mPa·s
same,viscosity,"353.15 K, x1 = 0.62",4.3 mPa·s
same,viscosity,"353.15 K, x1 = 0.7",5.2 mPa·s
same,viscosity,"353.15 K, x1 = 0.8",6.35 mPa·s
same,viscosity,"353.15 K, x1 = 1",9.28 mPa·s
same,mass density,"353.15 K, x1 = 0.1",1151.6 ± 2.3 kg/m3
same,mass density,"353.15 K, x1 = 0.22",1160.1 ± 2.3 kg/m3
same,mass density,"353.15 K, x1 = 0.3",1165.4 ± 2.3 kg/m3
same,mass density,"353.15 K, x1 = 0.4",1170.8 ± 2.4 kg/m3
same,mass density,"353.15 K, x1 = 0.5",1174.9 ± 2.4 kg/m3
same,mass density,"353.15 K, x1 = 0.62",1178.7 ± 2.4 kg/m3
same,mass density,"353.15 K, x1 = 0.7",1180 ± 2.4 kg/m3
same,mass density,"353.15 K, x1 = 0.8",1181.5 ± 2.5 kg/m3
same,mass density,"353.15 K, x1 = 1",1182 ± 2.6 kg/m3
same,electrical conductivity,"353.65 K, x1 = 1",10.5 ± 0.84 S/m
same,electrical conductivity,"358.15 K, x1 = 0.1",1.11 ± 0.089 S/m
same,electrical conductivity,"358.15 K, x1 = 0.22",1.99 ± 0.16 S/m
same,electrical conductivity,"358.15 K, x1 = 0.3",3.19 ± 0.26 S/m
same,electrical conductivity,"358.15 K, x1 = 0.5",5.55 ± 0.44 S/m
same,electrical conductivity,"358.15 K, x1 = 0.8",7.12 ± 0.57 S/m
same,electrical conductivity,"362.15 K, x1 = 0.3",3.35 ± 0.27 S/m
same,electrical conductivity,"363.15 K, x1 = 0.5",5.83 ± 0.47 S/m
same,electrical conductivity,"363.15 K, x1 = 0.8",7.57 ± 0.61 S/m

# — the NIST ThermoML archive (doi:10.1016/j.jct.2012.11.020)
